The source of these data is patent publication US12227500B2, “Substituted pyrrolo[2,3-b]pyridines for suppressing toxic endoplasmic reticulum stress” (THE TRUSTEES OF COLUMBIA UNIVERSITY IN THE CITY OF NEW YORK, priority 2018, dated 2025).

For data set [1], the system named is human ALS stem cell-derived motor neurons. Put plainly: Rescue of CPA toxicity, 6-point dose-response assay (FIG. 2B). The class given is cell-based.
A short description of data set [2]: In vivo pharmacokinetics, IP injection or oral gavage, 10 mg/kg. On the set-up: species or system mouse. Conditions: for Kp at 3 h: brain/plasma, read-out: Brain/plasma ratio at 3 h; for Cmax: plasma. The procedure: Based on its strong performance in the microsome assay, 12k was selected for further pharmacokinetic analysis in vivo. Compounds 1 and 12k were administered to 8 week-old wild-type […] mice at 10 mg/kg through intraperitoneal (IP) injection or oral gavage (OG). Brains and plasma were collected across 4 time points over 24 h for LC-MS/MS analysis.
Compounds 1 and 12k were dissolved in DMSO to 40 mg/mL. For in vivo administration, the DMSO stock was further diluted to 2 mg/mL in a vehicle containing 40% PEG-400 (Sigma) and 55% of a (2-hydroxypropyl)-beta-cyclodextrin solution (20% in nanopure water, Sigma). Compounds were delivered at 10 mg/kg by intraperitoneal injection or oral gavage to 8 week-old male wild-type C57Bl6J mice (Jackson). After 15 min, 3 h, 8 h or 24h, animals were anesthetized with a mixture of ketamine (100 mg/kg) and xylazine (10 mg/kg), then decapitated to collect trunk blood and dissect fresh brain tissue. Blood samples were treated with EDTA solution (50 mM final concentration) to prevent coagulation and centrifuged for 10 min at 845 rcf at 4° to separate plasma. Fresh brains were lysed in 5 volumes of ddH2O.
Plasma samples were transferred to Eppendorf tubes (50 μL per sample) and diluted with acetonitrile (200 μL). The samples were sonicated for 1 minute followed by centrifugation at 16,000 rpm for 10 minutes. The supernatant was transferred to another Eppendorf tube and the solvent evaporated overnight. The samples were reconstituted in a mixture of 40 μL acetonitrile and 10 μL water transferred to a sample vial with insert, and analyzed by LC-MS.
Homogenized brain samples (250 μL) were transferred to Eppendorf tubes and diluted with acetonitrile (750 μL). The samples were sonicated for 1 minute followed by centrifugation at 16,000 rpm for 10 minutes. The supernatant (900 μL) was transferred to another Eppendorf tube and the solvent evaporated overnight. The samples were reconstituted in a mixture of 80 μL acetonitrile and 20 μL water, transferred to a sample vial with insert, and analyzed by LC-MS.
LC-MS analysis was performed on a platform comprising a Thermo Scientific Dionex Ultimate 3000 and a Bruker amaZon SL equipped with an electrospray ionization source controlled by Bruker Hystar 3.2. The compound concentration in each plasma sample was determined using a calibration curve. Chromatographic separation was performed by injecting 10 μL of the sample onto an Agilent Eclipse Plus C18 column (2.1×50 mm, 3.5 μm) maintained at 20° C. The flow rate was maintained at 400 μL/min. The initial flow conditions were 60% solvent A (water containing 0.1% acetic acid) and 40% solvent B (methanol containing 0.1% acetic acid). Solvent B was raised to 60% over 0.25 minutes and to 70% by 6.75 minutes.

The nature of data set [3]: Spectrophotometric solubility assay of vehicle formulations (540 nM). Format: physicochemical. The protocol:
These mixtures were then read on a spectrophotometer at […] to assess optical density, a measure of the transparency of the mixture and an indicator of the formation of precipitates. […] At higher concentrations, these precipitates were visible by eye.
Compounds diluted in different vehicle formulations were added to clear cell culture media at ratios consistent with our in vivo dosing scheme.

The nature of data set [4]: Pharmacokinetics of compound 1 in mice (background). Conditions: mouse, in vivo.
Data set [5] has as its system panel of 371 human kinases. Briefly: Radiolabeled ATP kinase assay, panel of 371 kinases (Table S6). The class given is biochemical. Conditions: 0.1 μM, 10 μM ATP. An excerpt: ; FIG. 38C). […]. Further targeted analyses, such as genetic knock-down or knock-out, may be warranted to parse the role of these additional kinases in our model of neurodegeneration.
The subject of data set [6] is phospho-cjun. Briefly: Phospho-cjun in olfactory bulbs after treatment in vivo (western blot). On the set-up: species or system mouse. Conditions: 10 mg/kg oral gavage. The protocol:
Compounds at 10 mg/kg were delivered intraperitoneally (IP), orally, or sub-cutaneously (SC). Animals were sacrificed 1 h after treatment. Their olfactory bulbs were dissected and lysed for western blot analysis. Phospho-cjun expression was normalized to the housekeeping protein GAPDH.
We therefore selected phospho-cjun as a marker of target engagement for further in vivo studies. C-jun is highly expressed throughout the murine central nervous system, especially in the olfactory bulbs. […] Animals were then sacrificed after 1 h, and their olfactory bulbs were sub-dissected and lysed for further western blot analysis. Samples were probed with an antibody specific to phosphorylated c-jun (at serine 63; cell signaling) and normalized to the housekeeping gene GAPDH.
On the technique in general: In western blotting, separated proteins are transferred to a membrane and probed.

Data set [7] deals with targets of cyclin-dependent kinases and mitogen activated kinases. Put plainly: Target engagement in CNS, per os 7 days (phosphoprotein blot of brain). Format: in vivo, mouse. Conditions: 5 or 10 mg/kg. The procedure: To explore the target engagement in CNS for compound 12k, compounds 1 and 12k were administered continuously per os to wild-type mice (n=3 per treatment). […] Fresh brain samples were harvested after 7 days of treatment. Reduced brain samples were separated by SDS-PAGE and probed with an antibody that recognizes phosphoproteins that have been phosphorylated at motifs corresponding to the targets of cyclin-dependent kinases and mitogen activated kinases.

Data set [8] is described as follows: Safety of long-term administration in drinking water. Conditions: 10 mg/kg, 60 days from P30. Format: in vivo. From the text: […]. Treatment began at P30 and continued for 60 days.

Where “and” joins values, the source holds several entries; their conditions need not be identical. Equal entries are not always repeated. Where two headings read alike, the source gives them in different places.

As usually defined, the Cmax is the highest concentration seen after dosing. For orientation: half-life means the time needed for the level to fall by half in the phase considered. Higher therefore signals slow loss. The compound `CN1CCN(Cc2ccc(-c3cnc4[nH]cc(-c5ccc6[nH]ccc6c5)c4c3)cc2)CC1` [Compound 1, 3-(1H-Indol-5-yl)-5-(4-((4-methylpiperazin-1-yl)methyl)phenyl)-1H-pyrrolo[2,3-b]pyridine, reference compound] returned a cellular potency in data set [1] greater than 100 nM. Besides, the “concentrations showing protective effects” value in data set [1] (33 μM CPA) is no less than 100 nM. In addition, the “concentration that completely reversed CPA-induced neurodegeneration” value in data set [1] (33 μM CPA, 0.01 μM-3 μM) came to 1 µM. Further, the “Oral bioavailability (% F) based on plasma measurements in IP vs. OG-treated animals” value in data set [2] stood at 46%. Also, in data set [2] (IP), the “Brain AUC” value turned out to be 1568 ng·h/mL, the “Brain mean Cmax” value came to 208.83 µg/kg and the “Plasma AUC” value is 7328 ng·h/mL. In addition, in data set [2] (OG), the “Brain AUC” value was 567.2 ng·h/mL, the “Brain mean Cmax” value worked out at 83.35 µg/kg and the “Plasma AUC” value was determined as 3401 ng·h/mL. In data set [2] (male, mouse, ip), the Kp at 3 h was determined as 0.25 and the Cmax was 972 ng/mL. Further, the Kp at 3 h in data set [2] (male, mouse, oral, OG) was determined as 0.18. This compound also came in with a Cmax in data set [2] (male, mouse, po, OG) of 476 ng/mL. For the same compound, in data set [3] (11% 2-hydroxypropyl-β-cyclodextrin), the “solubility after adding 2-hydroxypropyl-β-cyclodextrin to the vehicle” value is on record as “fully solubilize”. Also, the “solubility in cell culture media” value in data set [3] (formulation 55% saline, 40% PEG-400, 5% DMSO) is recorded as “highly insoluble”. The same compound had a half-life in data set [4] of 2 to 3 h.

A word on the bioavailability: it is the share of a dose that reaches the circulation, judged against a reference dose that is usually intravenous. On to `OCCN1CCN(Cc2ccc(-c3cnc4[nH]cc(-c5cccc(Cl)c5)c4c3)cc2)CC1` [Compound 12k, 2-(4-(4-(3-(3-Chlorophenyl)-1H-pyrrolo[2,3-b]pyridin-5-yl)benzyl)piperazin-1-yl)ethan-1-ol], for which the “% Enzyme Activity (relative to DMSO controls)” value came out at 89.48% in data set [5] (LYN B), 89.45% in data set [5] (PKCb2) and 101.46% in data set [5] (PKG1b). Moreover, the “Oral bioavailability (% F) based on plasma measurements in IP vs. OG-treated animals” value in data set [2] was 73%. Further, the “Brain AUC” value in data set [2] (IP) was 11570 ng·h/mL; in data set [2] (OG), 8429 ng·h/mL. For the same compound, the “Brain mean Cmax” value worked out at 1162.23 µg/kg in data set [2] (IP) and 658.88 µg/kg in data set [2] (OG). In addition, the “Plasma AUC” value in data set [2] (IP) was 3899 ng·h/mL; in data set [2] (OG) it was 2785 ng·h/mL. For the same compound, the “brain Cmax” value in data set [2] (IP-injected) was 1162 ng/g and 2.60 μM. In addition, the bioavailability in data set [2] (male, mouse, brain, po, read-out: Oral bioavailability (% F) by comparing brain measurements) amounted to 73%. Moreover, the Kp at 3 h is 3.91 in data set [2] (male, mouse, ip) and 2.58 in data set [2] (male, mouse, oral, OG). Also, the Cmax is 454 ng/mL in data set [2] (male, mouse, ip) and 184 ng/mL in data set [2] (male, mouse, po, OG). The “oral bioavailability (from reduction of cjun phosphorylation after oral gavage)” value in data set [6] is “orally bioavailable”. In addition, in data set [7], the “intensity of a high molecular weight phosphoprotein band in brain vs vehicle or compound 1” value was “consistently decreased the intensity of a high molecular weight band”. The “body mass vs vehicle-treated controls” value in data set [8] is listed as “mild increase in body mass”. For the same compound, the “survival, hindlimb strength, gross pathology” value in data set [8] is on record as “No differences in survival, hindlimb strength, or gross pathology”.
